# Where “and” joins values, the source holds several entries; their conditions need not be identical. Equal entries are not always repeated.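 Cultured in 96-well plates, cells were exposed to test compound for 48 hours across five concentrations. Here, GI50 denotes the concentration required for 50% inhibition of growth. TGI denotes the concentration required for complete inhibition of growth.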
# Assays:
# Assay in all cases: NCI tumour cell line growth inhibition, 48 h
# [1] = test system: DLD-1 colon
# [2] = test system: DMS 273 small cell lung
# [3] = test system: HOP-18 NSCLC
# [4] = test system: KM20L2 colon
# [5] = test system: LXFL 529 NSCLC
# [6] = test system: RXF-631 renal
# [7] = test system: SNB-78 CNS
# [8] = test system: XF 498 CNS
# [9] = test system: MDA-N
# [10] = test system: P388 leukemia
# [11] = test system: P388/ADR leukemia
# [12] = test system: SN12K1 renal
smiles,measurement,setting,value
COC(=O)/C=C1/CCC2[C@@H](C(=O)CC3[C@]2(C)CCC[C@@]3(C)C(=O)OC)C1C (stereo partly specified),TGI,[1],37.1 µM
same,TGI,[2],29.8 µM
same,TGI,[3],27.5 µM
same,TGI,[4],29.5 µM
same,TGI,[5],20.8 µM
same,TGI,[6],30.9 µM
same,TGI,[7],40.5 µM
same,TGI,[8],30.3 µM
CC1=NN(c2ccccc2)C(=O)C1N=Nc1ccc([As](=O)(O)O)c(O)c1 (stereo unspecified),TGI,[9],> 100 µM
Cn1c2ccccc2c(=S)c2ccccc21,TGI,[9],> 100 µM
CN(C)CCNC(=O)c1cc2ccccc2c2nc3ccccc3nc12,TGI,[1],3.59 µM
same,TGI,[2],> 100 µM
same,TGI,[3],> 22.9 µM
same,TGI,[4],2.93 µM
same,TGI,[5],> 22.3 µM
same,TGI,[7],16.4 µM
CS(=O)(=O)NNS(=O)(=O)c1cccc([N+](=O)[O-])c1,TGI,[1],> 100 µM
same,TGI,[2],> 100 µM
same,TGI,[4],> 100 µM
same,TGI,[5],> 100 µM
same,TGI,[6],> 100 µM
same,TGI,[8],> 100 µM
C=C1C(=O)O[C@@H]2C[C@@]3(C)CCC[C@H](C)C3=C[C@H]12,TGI,[9],16.6 µM
Cc1ccc(NC(=O)C(=O)C2C(=O)N(c3ccccc3)N=C2N)cc1C (stereo unspecified),TGI,[1],> 100 µM
same,TGI,[2],> 100 µM
same,TGI,[3],> 100 µM
same,TGI,[4],> 100 µM
same,TGI,[5],> 100 µM
same,TGI,[6],> 100 µM
same,TGI,[7],> 100 µM
same,TGI,[8],> 100 µM
CC(=O)OC(/C=C1/C=CC(=O)O1)COC(=O)c1ccccc1 (stereo unspecified),TGI,[1],> 31.2 µM
same,TGI,[2],> 31.2 µM
same,TGI,[3],> 31.2 µM
same,TGI,[4],> 31.2 µM
same,TGI,[5],> 31.2 µM
same,TGI,[7],> 31.2 µM
same,TGI,[8],> 31.2 µM
CCOC(=O)/C(O)=C(/c1n[nH]c(=O)c2ccccc12)[N+](=O)[O-],TGI,[1],> 100 µM
same,TGI,[2],> 100 µM
same,TGI,[3],> 100 µM
same,TGI,[4],> 100 µM
same,TGI,[5],> 100 µM
same,TGI,[7],> 100 µM
COc1cc(O)c2c(O)c3c(c4c2c1[C@]1(C4)C(C)=CCCC1(C)C)[C@H](O)[C@@]1(O)CC(=O)C(C(N)=O)=C(O)[C@@]1(O)C3=O,TGI,[9],1.72 µM
O=c1cccccc1NCCOCCNc1cccccc1=O,TGI,[1],> 100 µM
same,TGI,[2],> 100 µM
same,TGI,[3],> 100 µM
same,TGI,[4],> 100 µM
same,TGI,[5],> 100 µM
same,TGI,[7],> 100 µM
Cc1ccc(NC(=O)CCC(CC(=O)C(C)(C)C)=NNC(=O)C(=O)NN)cc1C,TGI,[1],> 100 µM
same,TGI,[2],> 100 µM
same,TGI,[3],> 100 µM
same,TGI,[4],> 100 µM
same,TGI,[5],> 100 µM
same,TGI,[8],> 100 µM
CCOC12OC3=C(CC1CC1=C(CCC1=O)O2)C(=O)CC3 (stereo unspecified),TGI,[1],> 100 µM
same,TGI,[2],> 100 µM
same,TGI,[3],> 100 µM
same,TGI,[4],> 100 µM
same,TGI,[5],> 100 µM
same,TGI,[6],> 100 µM
same,TGI,[7],> 100 µM
Cc1cc(NS(=O)(=O)c2ccc(N=Nc3cc(N=Nc4ccc(S(=O)(=O)Nc5cc(C)nc(C)n5)cc4)c4c(NC(=O)C(Cl)Cl)cccc4c3OC(=O)C(Cl)Cl)cc2)nc(C)n1 (tested in a mixture with another compound),TGI,[1],33.4 µM
same,TGI,[2],83.9 µM
same,TGI,[3],34.1 µM
same,TGI,[4],60.8 µM
same,TGI,[7],> 100 µM
O=S(=O)(O)O.[NH-]C1CCCCC1[NH-].[Pt+2] (stereo unspecified),GI50,[1],27.8 µM
same,TGI,[1],> 100 µM
same,GI50,[4],35.8 µM
same,TGI,[4],> 100 µM
same,GI50,[5],> 100 µM
same,TGI,[5],> 100 µM
same,GI50,[7],> 100 µM
same,TGI,[7],> 100 µM
COc1ccc(CCN2C(=O)C=CC2=O)cc1OC,TGI,[9],33.5 µM
Nc1nc(N)c(N=O)c(Nc2ccc(O)cc2)n1,TGI,[9],> 100 µM
CCC[CH2][Sn]1([CH2]CCC)[O]C(=O)c2cc(I)cc(I)c2[O]1,GI50,[1],1.15 µM
same,TGI,[1],2.42 µM
same,GI50,[2],1.28 µM
same,TGI,[2],2.82 µM
same,GI50,[3],1.62 µM
same,TGI,[3],3.03 µM
same,GI50,[4],1.84 µM
same,TGI,[4],3.39 µM
same,GI50,[5],0.247 µM
same,TGI,[5],1.33 µM
same,GI50,[7],0.536 µM
same,TGI,[7],2.37 µM
Cc1[nH]c2ccccc2c1C1Cc2ccccc2N1C(=O)/C=C/C=C/c1ccccc1 (stereo unspecified),TGI,[1],> 100 µM
same,TGI,[2],> 100 µM
same,TGI,[4],> 100 µM
same,TGI,[5],> 100 µM
same,TGI,[7],> 100 µM
[O-]c1c2c(nn1-c1ccccc1)c1ccccc1c[n+]2Cc1ccccc1,TGI,[1],> 100 µM
same,TGI,[2],> 100 µM
same,TGI,[3],> 100 µM
same,TGI,[4],> 100 µM
same,TGI,[5],> 100 µM
same,TGI,[6],> 100 µM
same,TGI,[7],> 100 µM
same,TGI,[8],> 100 µM
C/C(=C\C(C)COCc1ccccc1)[C@H](COCc1ccccc1)OCc1ccccc1 (stereo partly specified),TGI,[2],> 100 µM
same,TGI,[4],> 100 µM
same,TGI,[5],> 100 µM
same,TGI,[6],> 100 µM
same,TGI,[7],> 100 µM
same,TGI,[8],> 100 µM
COc1cc(/C=C2\[C@H]3c4c(c(OC)c(C)c(OC)c4OC)C[C@@H](C(=O)N2Cc2ccccc2)N3C(=O)OCC(C)C)c(OC)c(C)c1OC,TGI,[1],> 100 µM
same,TGI,[2],> 100 µM
same,TGI,[3],> 100 µM
same,TGI,[4],> 100 µM
same,TGI,[5],> 100 µM
same,TGI,[8],> 100 µM
COc1ccc2c(=O)c(C)c(-c3ccccc3)oc2c1CN(C)C,TGI,[1],> 100 µM
same,TGI,[2],> 100 µM
same,TGI,[3],> 100 µM
same,TGI,[4],> 100 µM
same,TGI,[5],> 100 µM
same,TGI,[7],> 100 µM
same,TGI,[8],> 100 µM
O=c1/c(=C/c2cccc([N+](=O)[O-])c2)sc2nc3ccccc3n12,TGI,[1],> 100 µM
same,TGI,[2],> 100 µM
same,TGI,[5],> 100 µM
same,TGI,[7],> 100 µM
same,TGI,[8],> 100 µM
CCOC(C)C(/C=N/NC(N)=S)=NNC(N)=S (stereo unspecified),TGI,[1],> 100 µM
same,TGI,[5],> 100 µM
same,TGI,[7],> 100 µM
COc1cc(/C=C2/C(=O)N(C(=O)OC(C)C)C(Cc3cc(OC)c(OC)c(C)c3OC)C(=O)N2Cc2ccccc2)c(OC)c(C)c1OC (stereo unspecified),TGI,[1],> 100 µM
same,TGI,[2],> 100 µM
same,TGI,[3],> 100 µM
same,TGI,[4],> 100 µM
same,TGI,[5],> 100 µM
CCC(C)(C)C(=O)O[C@H]1C[C@@H](C)C=C2C=C[C@H](C)[C@H](CC[C@@H]3C[C@@H](O)CC(=O)O3)[C@H]21,TGI,[1],> 30 µM
same,TGI,[2],> 30 µM
same,TGI,[3],> 30 µM
same,TGI,[4],> 30 µM
same,TGI,[5],> 30 µM
same,TGI,[6],> 30 µM
same,TGI,[7],> 30 µM
same,TGI,[8],> 30 µM
Cc1cc(O)cc2oc(=O)c3c(O)cc(O)cc3c12,TGI,[1],> 100 µM
same,TGI,[2],58.2 µM
same,TGI,[3],> 100 µM
same,TGI,[4],> 100 µM
same,TGI,[5],> 100 µM
same,TGI,[7],> 100 µM
same,TGI,[8],59.3 µM
COC(=O)NC1C(C)OC(OC2C/C=C(/C)C3C=CC4C(OC5CC(OC6CC(O)C(OC7CC(O)C(OC)C(C)O7)C(C)O6)C(O)C(C)O5)C(C)CC(C)C4C3(C)/C(O)=C3\C(=O)OC4(CC(C)C(CO)=CC4/C=C\2C)C3=O)CC1(C)[N+](=O)[O-] (stereo unspecified),TGI,[1],40.4 µM
same,TGI,[2],28.9 µM
same,TGI,[3],31.4 µM
same,TGI,[4],34 µM
same,TGI,[5],9.19 µM
same,TGI,[9],19.5 µM
same,TGI,[10],17.4 µM
same,TGI,[11],98.1 µM
same,TGI,[6],41.7 µM
same,TGI,[12],22.6 µM
same,TGI,[7],29.8 µM
same,TGI,[8],27 µM
Cc1c(Cl)ccc2c1NC(=O)C2(O)C(C(=O)c1ccccc1)c1ccccc1 (stereo unspecified),TGI,[1],> 100 µM
same,TGI,[2],> 100 µM
same,TGI,[3],> 100 µM
same,TGI,[4],> 100 µM
same,TGI,[5],> 100 µM
same,TGI,[6],> 100 µM
same,TGI,[7],> 100 µM
same,TGI,[8],96.9 µM
O=S1c2ccccc2N=C(c2ccc3ccccc3c2)CC1C1=CC=CCC1 (stereo unspecified),TGI,[1],26 µM
same,TGI,[2],41 µM
same,TGI,[3],> 100 µM
same,TGI,[4],37.2 µM
same,TGI,[5],29.7 µM
same,TGI,[6],37 µM
same,TGI,[8],31.6 µM
COc1cccc(C2c3cc4c(cc3OC(C)(O)C2C)OCO4)c1O (stereo unspecified),TGI,[9],4.69 µM
COc1ccc(C(=O)OCC2OC(n3cnc4c(=S)nc[nH]c43)C(OC(=O)c3ccc(OC)cc3)C2OC(=O)c2ccc(OC)cc2)cc1 (stereo unspecified),TGI,[1],> 100 µM
same,TGI,[2],> 100 µM
same,TGI,[4],> 100 µM
same,TGI,[5],> 100 µM
CCCCCCCCCCCCCC(=O)O[C@H]1CC[C@H](NC(=O)[C@H](OC)[C@H](O)[C@@H](O)[C@H](O)/C=C/C(C)C)C(=O)NC1,GI50,[2],< 0.001 µM
same,TGI,[2],0.0303 µM
same,GI50,[3],> 51.2 µM
same,TGI,[3],> 51.2 µM
same,GI50,[4],0.0453 µM
same,TGI,[4],8.34 µM
same,GI50,[5],0.00512 µM
same,TGI,[5],7.26 µM
same,GI50,[9],0.0165 µM
same,TGI,[9],44.7 µM and 12.1 µM
same,TGI,[8],0.305 µM
COC(=O)C1=C2CCC(=O)[C@@]2(C)C(OC(C)=O)C=CC1 (stereo partly specified),TGI,[1],> 100 µM
same,TGI,[2],> 100 µM
same,TGI,[4],> 100 µM
same,TGI,[5],> 100 µM
same,TGI,[6],54 µM
same,TGI,[7],> 100 µM
same,TGI,[8],92.9 µM
CC(=O)[CH-]C(=O)c1ccccc1.CC(=O)[CH-]C(=O)c1ccccc1.CC[O-].CC[O-].[Zr+4],GI50,[1],> 100 µM
same,TGI,[1],> 100 µM
same,GI50,[3],> 100 µM
same,TGI,[3],> 100 µM
same,GI50,[4],> 100 µM
same,TGI,[4],> 100 µM
same,GI50,[5],> 100 µM
same,TGI,[5],> 100 µM
O=S(=O)(/C=C/c1ccc(Cl)cc1Cl)Cc1ccccc1CS(=O)(=O)/C=C/c1ccc(Cl)cc1Cl,TGI,[1],> 100 µM
same,TGI,[2],> 100 µM
same,TGI,[4],> 100 µM
same,TGI,[5],> 100 µM
same,TGI,[7],> 100 µM
same,TGI,[8],> 100 µM
CC1CC2(C)ON=C(c3ccccc3)N2c2ccccc2S1 (stereo unspecified),GI50,[9],34.2 µM

# Reference: PubChem BioAssay (NCI)
